What was measured:
Assay in all cases: FRET-based coupled-enzyme protein kinase inhibition assay
Format in all cases: biochemical
Settings in all cases: compound at 10 µM, 1% DMSO
CSNK1G2 (CK1 gamma 2) = CSNK1G2 (CK1 gamma 2) (Homo sapiens, UniProt P78368)
Method in brief: (§1)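 Inhibition was quantified ratiometrically, as coumarin over fluorescein emission following 400 nm excitation, on a doubly labeled peptide whose cleavage by development reagent requires it to remain unphosphorylated. Kinase reactions ran 60 min at room temperature with ATP at apparent Km.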

EGFR (ErbB1) = EGFR (ErbB1) (Homo sapiens, UniProt P00533)
Method in brief: as §1

EPHA2 = EPHA2 (Homo sapiens, UniProt P29317)
Method in brief: as §1

FLT3 = target: T1, FLT3 (Homo sapiens, UniProt P36888)
T1 sequence (P36888 27-993): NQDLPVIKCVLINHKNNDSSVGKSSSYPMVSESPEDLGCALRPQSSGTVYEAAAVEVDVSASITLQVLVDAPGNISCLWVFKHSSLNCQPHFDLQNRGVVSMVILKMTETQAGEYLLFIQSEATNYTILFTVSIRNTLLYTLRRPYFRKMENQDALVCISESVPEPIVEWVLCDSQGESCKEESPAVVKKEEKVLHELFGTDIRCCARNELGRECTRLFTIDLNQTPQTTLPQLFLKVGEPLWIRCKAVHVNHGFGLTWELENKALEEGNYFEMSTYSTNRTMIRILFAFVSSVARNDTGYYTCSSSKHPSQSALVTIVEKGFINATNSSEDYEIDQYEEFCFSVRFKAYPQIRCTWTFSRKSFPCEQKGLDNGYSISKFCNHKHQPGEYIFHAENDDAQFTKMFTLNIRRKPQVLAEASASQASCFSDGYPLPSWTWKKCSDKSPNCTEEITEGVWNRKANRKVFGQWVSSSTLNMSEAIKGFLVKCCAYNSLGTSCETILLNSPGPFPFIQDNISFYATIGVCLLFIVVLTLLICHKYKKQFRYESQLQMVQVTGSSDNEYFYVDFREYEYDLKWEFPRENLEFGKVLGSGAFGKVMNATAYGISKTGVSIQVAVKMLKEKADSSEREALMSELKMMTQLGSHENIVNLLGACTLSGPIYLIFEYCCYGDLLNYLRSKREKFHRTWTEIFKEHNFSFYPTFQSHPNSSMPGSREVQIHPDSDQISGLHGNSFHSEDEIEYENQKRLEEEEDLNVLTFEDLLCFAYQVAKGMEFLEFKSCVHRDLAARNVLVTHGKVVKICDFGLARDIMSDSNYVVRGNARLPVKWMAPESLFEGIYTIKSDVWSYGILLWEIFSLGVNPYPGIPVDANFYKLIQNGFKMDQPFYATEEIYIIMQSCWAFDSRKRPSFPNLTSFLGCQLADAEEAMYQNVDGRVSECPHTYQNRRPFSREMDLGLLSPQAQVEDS
Method in brief: as §1

FRAP1 (mTOR) = FRAP1 (mTOR) (Homo sapiens, UniProt P42345)
Method in brief: as §1

IGF1R = IGF1R (Homo sapiens, UniProt P08069)
Method in brief: as §1

LCK = LCK (Homo sapiens, UniProt P06239)
Method in brief: as §1

MAPK14 (p38 alpha) = MAPK14 (p38 alpha) (Homo sapiens, UniProt Q16539)
Method in brief: as §1

MAPK3 (ERK1) = MAPK3 (ERK1) (Homo sapiens, UniProt P27361)
Method in brief: as §1

MARK2 = MARK2 (Homo sapiens, UniProt Q7KZI7)
Method in brief: as §1

PIM1 = PIM1 (Homo sapiens, UniProt P11309)
Method in brief: as §1

SRC = SRC (Homo sapiens, UniProt P12931)
Method in brief: as §1

Sequence of MAPK3 (ERK1) (P27361 whole entry, species assumed): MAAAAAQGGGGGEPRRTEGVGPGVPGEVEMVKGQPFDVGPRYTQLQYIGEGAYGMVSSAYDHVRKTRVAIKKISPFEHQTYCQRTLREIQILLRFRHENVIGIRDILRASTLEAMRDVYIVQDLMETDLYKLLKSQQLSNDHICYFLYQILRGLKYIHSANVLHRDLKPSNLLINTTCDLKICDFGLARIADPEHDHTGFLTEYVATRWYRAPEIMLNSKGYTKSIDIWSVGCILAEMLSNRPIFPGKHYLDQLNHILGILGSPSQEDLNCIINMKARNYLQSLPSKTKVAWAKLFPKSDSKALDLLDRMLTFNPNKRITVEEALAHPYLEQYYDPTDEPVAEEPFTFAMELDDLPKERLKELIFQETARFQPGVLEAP
Sequence of MAPK14 (p38 alpha) (Q16539 whole entry, species assumed): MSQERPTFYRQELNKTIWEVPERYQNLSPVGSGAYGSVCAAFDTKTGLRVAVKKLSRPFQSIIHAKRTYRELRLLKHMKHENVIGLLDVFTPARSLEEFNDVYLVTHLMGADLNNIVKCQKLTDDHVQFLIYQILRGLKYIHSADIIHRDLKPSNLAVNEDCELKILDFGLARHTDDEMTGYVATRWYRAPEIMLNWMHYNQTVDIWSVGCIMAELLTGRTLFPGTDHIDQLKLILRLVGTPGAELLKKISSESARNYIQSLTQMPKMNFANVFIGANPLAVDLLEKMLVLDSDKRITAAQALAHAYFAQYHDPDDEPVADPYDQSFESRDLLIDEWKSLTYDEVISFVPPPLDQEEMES
Sequence of IGF1R (P08069 31-1367, species assumed): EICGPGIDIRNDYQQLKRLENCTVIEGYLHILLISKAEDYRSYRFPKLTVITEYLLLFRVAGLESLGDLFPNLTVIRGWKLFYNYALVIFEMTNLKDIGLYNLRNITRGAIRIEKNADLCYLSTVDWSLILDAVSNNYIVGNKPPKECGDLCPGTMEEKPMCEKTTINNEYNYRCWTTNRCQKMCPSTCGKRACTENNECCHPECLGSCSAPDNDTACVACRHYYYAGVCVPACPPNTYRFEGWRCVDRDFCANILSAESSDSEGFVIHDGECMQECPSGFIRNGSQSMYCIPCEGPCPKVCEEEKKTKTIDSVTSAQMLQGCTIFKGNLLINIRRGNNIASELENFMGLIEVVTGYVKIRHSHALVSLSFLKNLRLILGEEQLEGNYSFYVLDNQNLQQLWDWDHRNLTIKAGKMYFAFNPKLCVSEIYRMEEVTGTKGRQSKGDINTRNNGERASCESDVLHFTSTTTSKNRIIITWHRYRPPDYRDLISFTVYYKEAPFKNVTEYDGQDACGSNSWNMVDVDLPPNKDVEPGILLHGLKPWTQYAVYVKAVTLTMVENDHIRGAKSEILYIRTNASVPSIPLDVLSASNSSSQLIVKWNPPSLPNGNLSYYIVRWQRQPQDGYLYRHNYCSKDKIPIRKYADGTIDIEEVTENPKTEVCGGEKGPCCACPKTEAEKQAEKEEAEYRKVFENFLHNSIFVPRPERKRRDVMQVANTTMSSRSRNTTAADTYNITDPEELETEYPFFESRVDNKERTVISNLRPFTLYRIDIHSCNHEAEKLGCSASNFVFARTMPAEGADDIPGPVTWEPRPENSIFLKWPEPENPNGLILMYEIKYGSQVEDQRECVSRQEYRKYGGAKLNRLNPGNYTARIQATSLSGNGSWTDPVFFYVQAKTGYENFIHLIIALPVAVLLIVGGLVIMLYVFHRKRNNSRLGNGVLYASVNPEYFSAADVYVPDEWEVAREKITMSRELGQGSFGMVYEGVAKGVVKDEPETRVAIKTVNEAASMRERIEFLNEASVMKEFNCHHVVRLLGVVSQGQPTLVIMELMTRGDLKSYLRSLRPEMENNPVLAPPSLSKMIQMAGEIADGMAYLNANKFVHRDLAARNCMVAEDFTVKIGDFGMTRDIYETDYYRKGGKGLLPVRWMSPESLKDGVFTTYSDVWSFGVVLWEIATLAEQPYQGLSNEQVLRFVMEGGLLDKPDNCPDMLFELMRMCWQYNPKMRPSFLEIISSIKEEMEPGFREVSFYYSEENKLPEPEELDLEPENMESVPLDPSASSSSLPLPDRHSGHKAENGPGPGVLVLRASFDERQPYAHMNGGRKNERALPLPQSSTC
Sequence of EPHA2 (P29317 24-976, species assumed): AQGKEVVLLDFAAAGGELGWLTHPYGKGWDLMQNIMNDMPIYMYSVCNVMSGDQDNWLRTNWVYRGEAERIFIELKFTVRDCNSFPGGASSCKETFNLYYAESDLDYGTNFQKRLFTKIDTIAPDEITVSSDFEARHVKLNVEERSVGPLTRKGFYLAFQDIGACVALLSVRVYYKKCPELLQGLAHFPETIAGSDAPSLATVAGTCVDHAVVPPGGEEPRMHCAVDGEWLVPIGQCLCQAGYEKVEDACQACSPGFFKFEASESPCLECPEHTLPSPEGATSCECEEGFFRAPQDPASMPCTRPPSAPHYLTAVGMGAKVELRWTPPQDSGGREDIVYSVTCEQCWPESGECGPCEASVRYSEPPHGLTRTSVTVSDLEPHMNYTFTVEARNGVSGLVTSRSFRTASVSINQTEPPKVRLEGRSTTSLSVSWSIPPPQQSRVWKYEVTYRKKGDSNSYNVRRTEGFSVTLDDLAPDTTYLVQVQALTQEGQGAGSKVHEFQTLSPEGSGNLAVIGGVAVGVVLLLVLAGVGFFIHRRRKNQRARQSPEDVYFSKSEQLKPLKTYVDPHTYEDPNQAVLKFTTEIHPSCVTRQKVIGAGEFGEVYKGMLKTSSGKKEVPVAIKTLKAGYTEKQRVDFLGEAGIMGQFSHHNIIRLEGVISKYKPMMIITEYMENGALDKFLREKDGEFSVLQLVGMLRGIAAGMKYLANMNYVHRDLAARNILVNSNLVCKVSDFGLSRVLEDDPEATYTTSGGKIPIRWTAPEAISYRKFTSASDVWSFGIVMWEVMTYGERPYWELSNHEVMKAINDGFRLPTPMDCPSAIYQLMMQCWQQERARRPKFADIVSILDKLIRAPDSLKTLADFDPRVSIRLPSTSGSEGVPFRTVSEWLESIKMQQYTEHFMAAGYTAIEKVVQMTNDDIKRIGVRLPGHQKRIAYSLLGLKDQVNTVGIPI
Sequence of PIM1 (P11309 whole entry, species assumed): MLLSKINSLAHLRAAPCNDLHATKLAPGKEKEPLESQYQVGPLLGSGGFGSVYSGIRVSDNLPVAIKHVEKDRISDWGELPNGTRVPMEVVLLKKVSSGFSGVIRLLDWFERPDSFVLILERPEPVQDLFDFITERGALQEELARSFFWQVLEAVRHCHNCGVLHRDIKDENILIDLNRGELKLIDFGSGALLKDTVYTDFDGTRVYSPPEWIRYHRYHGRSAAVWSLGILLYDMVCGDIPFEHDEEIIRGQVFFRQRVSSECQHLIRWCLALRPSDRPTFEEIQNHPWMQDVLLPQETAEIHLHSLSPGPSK
Sequence of CSNK1G2 (CK1 gamma 2) (P78368 whole entry, species assumed): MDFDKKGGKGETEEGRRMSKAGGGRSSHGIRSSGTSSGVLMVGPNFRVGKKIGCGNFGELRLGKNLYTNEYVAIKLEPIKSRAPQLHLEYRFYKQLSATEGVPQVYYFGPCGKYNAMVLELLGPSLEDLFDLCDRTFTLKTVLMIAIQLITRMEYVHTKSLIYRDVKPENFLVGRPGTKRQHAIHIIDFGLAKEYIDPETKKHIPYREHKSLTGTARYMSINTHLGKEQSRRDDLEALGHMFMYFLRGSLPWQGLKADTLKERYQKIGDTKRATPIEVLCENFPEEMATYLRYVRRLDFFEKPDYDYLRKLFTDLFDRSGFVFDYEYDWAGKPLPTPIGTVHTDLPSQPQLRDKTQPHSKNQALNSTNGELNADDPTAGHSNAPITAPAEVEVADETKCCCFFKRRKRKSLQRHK
Sequence of LCK (P06239 whole entry, species assumed): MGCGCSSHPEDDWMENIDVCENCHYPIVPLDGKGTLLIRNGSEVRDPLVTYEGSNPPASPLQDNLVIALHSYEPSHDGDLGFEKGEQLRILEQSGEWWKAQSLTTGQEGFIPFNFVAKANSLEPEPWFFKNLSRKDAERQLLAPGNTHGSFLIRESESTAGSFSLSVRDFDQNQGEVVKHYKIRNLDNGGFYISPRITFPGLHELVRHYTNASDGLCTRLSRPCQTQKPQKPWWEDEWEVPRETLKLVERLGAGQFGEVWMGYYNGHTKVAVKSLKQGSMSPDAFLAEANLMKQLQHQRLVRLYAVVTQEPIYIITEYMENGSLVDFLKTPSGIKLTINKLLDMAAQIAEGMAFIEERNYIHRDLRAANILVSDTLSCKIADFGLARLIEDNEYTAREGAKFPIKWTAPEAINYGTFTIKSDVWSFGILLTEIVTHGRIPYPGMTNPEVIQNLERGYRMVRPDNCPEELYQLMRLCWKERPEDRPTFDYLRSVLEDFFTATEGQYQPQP
Sequence of SRC (P12931 whole entry, species assumed): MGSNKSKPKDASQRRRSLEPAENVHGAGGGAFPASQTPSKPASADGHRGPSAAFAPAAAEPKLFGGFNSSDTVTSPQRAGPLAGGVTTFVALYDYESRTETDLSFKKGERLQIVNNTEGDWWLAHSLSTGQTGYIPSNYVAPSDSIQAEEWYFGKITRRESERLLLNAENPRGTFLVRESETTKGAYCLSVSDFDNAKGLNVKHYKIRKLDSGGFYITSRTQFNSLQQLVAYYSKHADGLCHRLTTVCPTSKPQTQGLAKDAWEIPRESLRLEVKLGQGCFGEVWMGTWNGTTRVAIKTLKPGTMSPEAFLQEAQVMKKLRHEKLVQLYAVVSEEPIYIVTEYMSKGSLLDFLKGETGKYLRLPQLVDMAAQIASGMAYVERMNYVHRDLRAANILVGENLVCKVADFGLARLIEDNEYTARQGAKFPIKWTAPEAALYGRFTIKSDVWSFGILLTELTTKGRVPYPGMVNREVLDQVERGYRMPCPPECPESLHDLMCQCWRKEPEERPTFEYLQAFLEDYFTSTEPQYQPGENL

| SMILES | inhibition at 10 µM (CSNK1G2 (CK1 gamma 2)) [%] | inhibition at 10 µM (EGFR (ErbB1)) [%] | inhibition at 10 µM (EPHA2) [%] | inhibition at 10 µM (FLT3) [%] | inhibition at 10 µM (FRAP1 (mTOR)) [%] | inhibition at 10 µM (IGF1R) [%] | inhibition at 10 µM (LCK) [%] | inhibition at 10 µM (MAPK14 (p38 alpha)) [%] | inhibition at 10 µM (MAPK3 (ERK1)) [%] | inhibition at 10 µM (MARK2) [%] | inhibition at 10 µM (PIM1) [%] | inhibition at 10 µM (SRC) [%] |
| --- | --- | --- | --- | --- | --- | --- | --- | --- | --- | --- | --- | --- |
| Nc1ncnc2c1ncn2[C@@H]1O[C@H](COC(=O)NCCCc2nc3ccccc3[nH]2)[C@@H](O)[C@H]1O [Compound C1] | -2 | 34 | 8 | 6 | -2 | 0 | 72 | -3 | 5 | 3 | -2 | 46 |
| C[C@@H](NC(=O)OC[C@H]1O[C@@H](n2cnc3c(N)ncnc32)[C@H](O)[C@@H]1O)c1ccc(Cl)cc1 [Compound C4] | 7 | 22 | 4 | 19 | -5 | 11 | 60 | -1 | 6 | 20 | -8 | 33 |
| Nc1ncnc2c1ncn2[C@@H]1O[C@H](COC(=O)NC[C@H](O)CO)[C@@H](O)[C@H]1O [Compound C8] | 13 | 14 | 12 | 12 | 5 | 5 | 26 | -3 | 12 | 10 | 11 | -13 |
| Nc1ncnc2c1ncn2[C@@H]1O[C@H](COC(=O)N2CCC[C@H]2CO)[C@@H](O)[C@H]1O [Compound C9] | -5 | -2 | 5 | 8 | -3 | 9 | 19 | -4 | 5 | 6 | 3 | 16 |
| Nc1ncnc2c1ncn2[C@@H]1O[C@H](COC(=O)N[C@@H]2CCN(Cc3ccccc3)C2)[C@@H](O)[C@H]1O [Compound C10] | 7 | 27 | 9 | 13 | -3 | 8 | 62 | 6 | 5 | 8 | 1 | 25 |
| Nc1ncnc2c1ncn2[C@@H]1O[C@H](COC(=O)N2CCN(Cc3ccccc3)CC2CO)[C@@H](O)[C@H]1O (stereo partly drawn) [Compound C13] | 11 | 8 | 3 | 12 | -1 | 2 | 44 | 0 | 5 | 11 | 1 | 29 |
| CC(C)N1CCC(NC(=O)OC[C@H]2O[C@@H](n3cnc4c(N)ncnc43)[C@H](O)[C@@H]2O)CC1 [Compound C19] | 6 | 17 | 7 | 23 | 5 | -2 | 32 | -1 | 4 | 7 | -7 | -1 |
| Nc1ncnc2c1ncn2[C@@H]1O[C@H](COC(=O)NCCN2CCCC2=O)[C@@H](O)[C@H]1O [Compound C22] | 2 | 11 | 1 | 9 | 0 | 4 | 15 | -1 | 1 | 8 | -6 | 12 |
| Nc1ncnc2c1ncn2[C@@H]1O[C@H](COC(=O)N2CCN(CCc3ccccc3)CC2)[C@@H](O)[C@H]1O [Compound C26] | 0 | 13 | -1 | 18 | -6 | 8 | 57 | -6 | 8 | 18 | -5 | 29 |
| CN1CCN(CCNC(=O)OC[C@H]2O[C@@H](n3cnc4c(N)ncnc43)[C@H](O)[C@@H]2O)CC1 [Compound C46] | -4 | 14 | 3 | 10 | 5 | 7 | 13 | 5 | 2 | 4 | 8 | 17 |
| Nc1ncnc2c1ncn2[C@@H]1O[C@H](COC(=O)N2CCC(Cc3ccc(F)cc3)C2)[C@@H](O)[C@H]1O (stereo partly drawn) [Compound C66] | 10 | 31 | 9 | 20 | -4 | 1 | 57 | 18 | -2 | -4 | 7 | 38 |
| N#CCCN1CCN(C(=O)OC[C@H]2O[C@@H](n3cnc4c(N)ncnc43)[C@H](O)[C@@H]2O)CC1 [Compound C70] | 0 | -1 | 4 | 7 | -6 | 1 | 11 | 4 | 4 | 6 | 5 | 8 |
| CN(C)CCNC(=O)OC[C@H]1O[C@@H](n2cnc3c(N)ncnc32)[C@H](O)[C@@H]1O [Compound C85] | 0 | 20 | 4 | 12 | 2 | 8 | 25 | 0 | 2 | 4 | 0 | 17 |
| Nc1ncnc2c1ncn2[C@@H]1O[C@H](COC(=O)N2CCN(C(=O)N3CCOCC3)CC2)[C@@H](O)[C@H]1O [Compound C89] | 0 | 28 | 6 | 10 | -4 | 2 | 9 | -2 | 3 | -3 | -4 | 8 |
| CS(=O)(=O)N1CC2(CCN(C(=O)OC[C@H]3O[C@@H](n4cnc5c(N)ncnc54)[C@H](O)[C@@H]3O)CC2)c2ccccc21 [Compound C98] | 15 | 5 | 5 | 13 | 2 | 8 | 84 | 20 | 8 | 2 | 6 | 58 |

— patent EP3212201B1, “NUCLEOSIDE KINASE INHIBITORS” (BCI Pharma, priority 2014, dated 2016)
